According to PubChem BioAssay (NCI):
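Briefly, cells in 96-well plates were exposed to five compound concentrations for 48 h, and endpoints were estimated by linear interpolation. GI50 = concentration required for 50% inhibition of growth. At the TGI there is no net growth.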

Key:
Assay in all cases: NCI anticancer screen, dose series, 48 h
[1] = test system: HOP-62 NSCLC
[2] = test system: MCF7 breast
[3] = test system: T-47D breast
[4] = test system: NCI-H522 lung
[5] = test system: HCT-116 colon
[6] = test system: HCT-15 colon
[7] = test system: COLO 205 colon
[8] = test system: KM12 colon
[9] = test system: OVCAR-4 ovarian
[10] = test system: MDA-MB-231 breast
[11] = test system: SK-MEL-5 melanoma
[12] = test system: BT-549 breast
[13] = test system: K-562 leukemia
[14] = test system: HS 578T breast
[15] = test system: SF-295 CNS
[16] = test system: CAKI-1 renal
[17] = test system: EKVX NSCLC
[18] = test system: DU-145 prostate
[19] = test system: SK-MEL-2 melanoma
[20] = test system: OVCAR-3 ovarian
[21] = test system: UACC-257 melanoma
[22] = test system: MDA-MB-435
[23] = test system: SK-MEL-28 melanoma
[24] = test system: ACHN renal
[25] = test system: UO-31 renal
[26] = test system: LOX IMVI melanoma
[27] = test system: MOLT-4 leukemia
[28] = test system: HL-60(TB) leukemia
[29] = test system: SN12C renal
[30] = test system: NCI-H23 lung
[31] = test system: SW-620 colon
[32] = test system: OVCAR-5 ovarian
[33] = test system: RPMI-8226 leukemia
[34] = test system: SF-539 CNS
[35] = test system: TK-10 renal
[36] = test system: HT29 colon
[37] = test system: UACC-62 melanoma
[38] = test system: A498 renal
[39] = test system: SK-OV-3 ovarian
[40] = test system: OVCAR-8 ovarian
[41] = test system: NCI-H226 lung
[42] = test system: U251 CNS
[43] = test system: SF-268 CNS
[44] = test system: A549 NSCLC
[45] = test system: SR leukemia
[46] = test system: HOP-92 NSCLC
[47] = test system: M14 melanoma
[48] = test system: NCI/ADR-RES ovarian
[49] = test system: NCI-H460 lung
[50] = test system: SNB-19 CNS
[51] = test system: MALME-3M melanoma
[52] = test system: HCC-2998 colon
[53] = test system: IGROV1 ovarian
[54] = test system: PC-3 prostate
[55] = test system: SNB-75 CNS
[56] = test system: RXF 393 renal
[57] = test system: 786-0 renal
[58] = test system: CCRF-CEM leukemia

## Cn1cc(-c2csc(-c3c[nH]c4ccccc34)n2)c2cccnc21
[1]
  GI50: 0.718 µM
  TGI: 27 µM
[2]
  GI50: 1.07 µM
  TGI: > 100 µM
[3]
  GI50: 0.783 µM
  TGI: > 27.5 µM
[4]
  GI50: 0.211 µM
  TGI: 2.01 µM
[5]
  GI50: 0.363 µM
  TGI: > 100 µM
[6]
  GI50: 0.503 µM
  TGI: > 100 µM
[7]
  GI50: 0.431 µM
  TGI: 6.98 µM
[8]
  GI50: 0.413 µM
  TGI: 77.2 µM
[9]
  GI50: 2.89 µM
  TGI: > 100 µM
[10]
  GI50: 1.33 µM
  TGI: 86.2 µM
[11]
  GI50: 0.391 µM
  TGI: 11.7 µM
[12]
  GI50: 1.16 µM
  TGI: 38.7 µM
[13]
  GI50: 0.232 µM
  TGI: > 100 µM
[14]
  GI50: 5.9 µM
  TGI: > 100 µM
[15]
  GI50: 0.305 µM
  TGI: 6.09 µM
[16]
  GI50: 0.291 µM
  TGI: > 37.9 µM
[17]
  GI50: 0.636 µM
  TGI: > 40.5 µM
[18]
  GI50: 1.05 µM
  TGI: 34.4 µM
[19]
  GI50: 0.498 µM
[20]
  GI50: 0.297 µM
  TGI: 3 µM
[21]
  GI50: 1.65 µM
  TGI: > 90.3 µM
[22]
  GI50: 0.0804 µM
  TGI: 0.323 µM
[23]
  GI50: 3.12 µM
  TGI: > 100 µM
[24]
  GI50: 0.97 µM
  TGI: > 100 µM
[25]
  GI50: 0.523 µM
  TGI: > 44.1 µM
[26]
  GI50: 0.537 µM
  TGI: > 100 µM
[27]
  GI50: 0.798 µM
  TGI: > 100 µM
[28]
  GI50: 0.343 µM
  TGI: > 100 µM
[29]
  GI50: 1.47 µM
  TGI: > 100 µM
[30]
  GI50: 1.16 µM
  TGI: > 100 µM
[31]
  GI50: 0.367 µM
  TGI: > 72.5 µM
[32]
  GI50: 8.88 µM
  TGI: > 100 µM
[33]
  GI50: 1.84 µM
  TGI: > 100 µM
[34]
  GI50: 0.655 µM
  TGI: 9.05 µM
[35]
  GI50: 1.56 µM
  TGI: 18.1 µM
[36]
  GI50: 0.324 µM
  TGI: 1.72 µM
[37]
  GI50: 0.448 µM
  TGI: > 100 µM
[38]
  GI50: 0.688 µM
  TGI: 46.6 µM
[39]
  GI50: 0.966 µM
  TGI: 23 µM
[40]
  GI50: 0.776 µM
  TGI: > 91.9 µM
[41]
  GI50: 2.55 µM
  TGI: > 66 µM
[42]
  GI50: 0.415 µM
  TGI: 16.2 µM
[43]
  GI50: 0.813 µM
  TGI: > 100 µM
[44]
  GI50: 0.656 µM
  TGI: > 64.4 µM
[45]
  GI50: 0.437 µM
  TGI: > 100 µM
[46]
  GI50: 0.915 µM
  TGI: 14.1 µM
[47]
  GI50: 0.356 µM
  TGI: > 100 µM
[48]
  GI50: 0.28 µM
  TGI: 12.4 µM
[49]
  GI50: 0.37 µM
  TGI: > 42.2 µM
[50]
  GI50: 0.825 µM
  TGI: > 75.1 µM
[51]
  GI50: 0.215 µM
  TGI: 16.2 µM
[52]
  GI50: 1.27 µM
  TGI: > 100 µM
[53]
  GI50: 0.308 µM
  TGI: 22.9 µM
[54]
  GI50: 0.988 µM
  TGI: > 66.7 µM
[55]
  GI50: 0.542 µM
  TGI: 4.82 µM
[56]
  GI50: 1.1 µM
  TGI: 9.84 µM
[57]
  GI50: 2.66 µM
  TGI: > 91.1 µM
[58]
  GI50: 0.534 µM
  TGI: > 100 µM
